The values that follow come from PMC8778091, “In Silico-Based Discovery of Natural Anthraquinones with Potential against Multidrug-Resistant E. coli” (Pharmaceuticals, 2022).

The test system of series [1] is E. coli (MDR) b clinical isolate. Put plainly: MIC, agar dilution method, E. coli MDR b. As to conditions: Escherichia coli; range 1-64 µg/mL, 37 °C, 18-20 h; read-out: MIC E. coli (MDR) b. The series is classed as cell-based. The protocol:
(§1) The selected top-scoring hits were evaluated for their antibacterial effect against two clinical multidrug-resistant strains of enterotoxigenic E. coli. Both isolates were isolated as clinical samples from Beni Suef general hospital, Beni Suef, Egypt. […] MRSA (ATCC 25529) and VRSA (clinical isolate from Beni Suef general hospital, Beni Suef, Egypt) were also used to further evaluate the tested compounds against resistant Gram-positive bacteria.
(§2) Minimum inhibitory concentrations for the test compounds were analyzed following the standard agar dilution method using Meuller-Hinton (MH) agar medium against different Gram-negative and positive bacteria (Table 1). Firstly, the tested compounds were prepared as a stock suspension with a 10 mg/mL final concentration in DMSO. Subsequently, the prepared stocks were diluted in 10 mL molten soft agar (0.5% agar) to obtain a concentration range from 1–64 µg/mL, then mixed and poured over a surface of MH agar (2% agar) plates and left for solidification. Finally, exponentially grown (O.D 600 nm of 0.6) test strains (Table 1) were diluted to a final density of 10^6 CFU/mL in MH broth and spotted (1 µL/spot) over the soft agar. Then, the plates were left for drying and incubated at 37 °C for 18–20 h. Controls were conducted using DMSO seeded soft agar. At the end of the experiment, the MIC for each compound was identified as the minimum concentration that inhibited the growth of the tested strain. The experiments were carried out in triplicates.
(Agar dilution tests growth on a series of plates holding different concentrations.)

Series [2] has as its system E. coli (MDR) a clinical isolate. Briefly: MIC, agar dilution method, E. coli MDR a. As to conditions: Escherichia coli; range 1-64 µg/mL, 37 °C, 18-20 h; read-out: MIC E. coli (MDR) a. The series is classed as cell-based. The protocol:
as §1, §2

Series [3] deals with T1, E. coli DAla:D-Ala ligase (Ddl-B) (Escherichia coli, UniProt P07862).
T1 construct: purchased ProFoldin DDA100KE
Briefly: Ddl-B enzymatic activity assay (inorganic phosphate, absorbance 650 nm). It counts as biochemical. The protocol: (§3) Ddl-B and Gyr-B activity assays were performed according to the manufacturer protocols (ProFoldin, Catalogue No. DDA100KE, and Inspiralis, Catalogue No. ATPG001, UK).
Ddl-B enzymatic activity assay is based on measuring the inorganic phosphate generated from the D-Alanine: D-Alanine ligation reaction. The inorganic phosphate is detected by absorbance at 650 nm. The assay reactions and detection were performed by using a 96-well plate. Different concentrations of the test compounds and the reference inhibitor D-cycloserine were prepared in DMSO (from 10 µM to 1000 µM). […] Thereafter, 33 μL of 10× enzyme substrate was prepared by mixing 3.3 μL of 100× enzyme substrate with 29.7 μL of water. Finally, 27 μL of the premix with 3 μL of the 10× enzyme substrate in each well were mixed. After 60 min of incubation at 37 °C, 45 μL of MPA3000 dye was added into the 30 μL of the reaction mixture. After 5 min of incubation, absorbance was measured at 650 nm.

Series [4] in a line: Cellular toxicity against normal fibroblasts WI-38 (MTT). The series is classed as cell-based. The note with it: human. The protocol: All selected top-scoring compounds were tested for their cellular toxicity against human fibroblasts cell line (WI-38). Cell line (WI-38; ATCC: CCL-75) was maintained in earth RPMI 1640 medium comprising 10% heat-inactivated fetal bovine serum (FBS) and grown at 37 °C and 5% CO2. The cell line was seeded on 96-well cell culture plates (2 × 10^4 cells/well). Cells were stimulated with tested compounds at different concentrations (from 1 to 50 µM) overnight in triplicates. Doxorubicin was used as a positive control. Cell viability was assessed by MTT assay. To normalize cell viability values, each plate included a triplicate of untreated cells considered as 100% viability, and a triplicate of cells treated with a cytotoxic mixture (200 ng/mL TNF, 200 ng/mL CD95L, 200 ng/mL TRAIL, 5 μg/mL CHX, 1% (w/v) sodium azide […]) considered as 0% viability. All other viability values were normalized according to the averages of these triplicates and analyzed by the Graph Pad Prism 5 software (La Jolla, CA, USA).

For series [5], the target named is T2, E. coli gyrase B43 domain (Gyr-B) (Escherichia coli, UniProt P0AES6).
T2 construct: 20 μL of the enzyme (E. coli gyrase B43 domain; 20 μM concentration); purchased Inspiralis ATPG001
Put plainly: biochemical. It counts as biochemical. How it is done: as §3
Gyr-B assay measured the capability of the tested compounds to hinder the ATPase activity of Gyr-B subunits. This assay links the hydrolysis of ATP by gyrase to the conversion of NADH to NAD^+, which can be measured by a change in absorbance at 340 nm. The assay reactions and detection were performed using a 96-well plate. […] First, the assay mix was prepared by mixing 20 μL of the assay buffer (50 mM Tris.HCl (pH 7.5), 1 mM EDTA, 5 mM magnesium chloride, 5 mM DTT, 10% (w/v) glycerol), 1 μL phosphoenolpyruvate (80 mM in water), 1.5 μL pyruvate kinase/lactate dehydrogenase stock, 2 μL NADH (20 mM in water), and 58.8 μL water. Thereafter, 63.3 μL of assay mix and 10 μL of the test compound solution and 20 μL of the enzyme (E. coli gyrase B43 domain; 20 μM concentration) were added into the wells and mixed by pipetting. After incubation for 10 min at 25 °C, 6.7 uL of ATP (30 mM) was added to each well. After 60 min of incubation at 25 °C, the absorbance was measured at 340 nm.

Series [6] has as its system VRSA (clinical isolate). Put plainly: MIC, agar dilution method, VRSA. The note with it: Staphylococcus aureus, VRSA; range 1-64 µg/mL, 37 °C, 18-20 h; read-out: MIC VRSA. It counts as cell-based, S. aureus. The protocol: as §1, §2
The test system of series [7] is MRSA (ATCC 25529). Briefly: MIC, agar dilution method, MRSA. The series is classed as cell-based, S. aureus. The note with it: Staphylococcus aureus; range 1-64 µg/mL, 37 °C, 18-20 h; read-out: MIC MRSA. How it is done:
as §1, §2

The subject of series [8] is tested bacterial strains (E. coli MDR, MRSA, VRSA). Briefly: Antibacterial evaluation, tested bacterial strains taken together. The series is classed as cell-based. The note with it: for MIC: Escherichia coli, E. coli MDR, MRSA, VRSA. The protocol: as §1, §2
Setting [9] is: 10-1000 µM tested, read-out: IC50 Ddl-B.

Values after ≈ are worked out from the molar mass of the structure shown. Like-named read-outs stand apart in the source and are kept apart here.

Usually MIC stands for the smallest concentration in the dilution series that meets the test's criterion for growth inhibition. For orientation: IC50 means the concentration at which inhibition is half-maximal. The term Ki denotes a dissociation constant, usually derived from enzyme kinetics or from competition with a known ligand. The term CC50 denotes the concentration at which the toxic effect on the cells reaches its halfway point. In the case of `CC(C)C1=CC2=CC[C@@H]3[C@](C)(CCC[C@@]3(C)C(=O)O)[C@H]2CC1` [Abietic acid], the minimum inhibitory concentration (MIC) in series [1] is 16 µg/mL (≈ 52.9 µM); in series [2], 64 µg/mL (≈ 212 µM); in series [6] it was 16 µg/mL (≈ 52.9 µM); in series [7], greater than 64 µg/mL; in series [8] it was 16 to 64 µg/mL (≈ 52.9 to 212 µM). The “Ddl-B inhibition in words” value in series [3] is “inactive”. Also, the half-maximal inhibitory concentration (IC50) in series [3] was greater than 1000 µM; in series [5] it was 1.4 ± 0.4 µM. In addition, the Ki was greater than 1000 µM in series [3] and 0.77 ± 0.1 µM in series [5]. This compound returned a CC50 in series [4] greater than 50 µM.
On to `O=C1c2c(O)cccc2C([C@@H]2O[C@H](CO)[C@@H](O)[C@H](O)[C@H]2O)c2cc(CO)cc(O)c21` (stereo partly drawn) [Aloin], for which the minimum inhibitory concentration (MIC) in series [1], in series [2], in series [6], in series [7] and in series [8] was greater than 64 µg/mL in each case. The “Ddl-B inhibition in words” value in series [3] was “weak inhibition”. The values for the concentration for half-maximal inhibition (IC50) in series [3] (setting [9]) and in series [5] were 927 ± 7.4 µM and 22.4 ± 2.1 µM, respectively. The Ki turned out to be 529 ± 12.3 µM in series [3] (read-out: Ki Ddl-B) and 10.5 ± 1.6 µM in series [5]. Besides, the half-maximal cytotoxic concentration (CC50) in series [4] (WI-38 normal fibroblast cells, WI-38, 1 to 50 µM overnight, MTT, read-out: CC50) is 34.7 ± 0.94 µM. Moreover, in series [5], the “Gyr-B inhibition in words” value is reported as “weak inhibition”.
With `O=C1c2ccccc2C(=O)c2ccccc21` [Anthraquinone], the minimum inhibitory concentration (MIC) is greater than 64 µg/mL in series [1], greater than 64 µg/mL in series [2], 64 µg/mL (≈ 307 µM) in series [6] and greater than 64 µg/mL in series [7]. The “Ddl-B inhibition in words” value in series [3] is “inactive”. Further, in series [5], the “Gyr-B inhibition in words” value was “inactive”. The compound further displayed an IC50 in series [5] greater than 100 µM. Moreover, the “Antibacterial activity in words, all tested bacteria” value in series [8] is “inactive”.
For `Cc1cc(O)c2c(c1)C(=O)c1cccc(O)c1C2=O` [Chrysophanol], the minimum inhibitory concentration (MIC) in series [1] is 4 µg/mL (≈ 15.7 µM); in series [2], 4 µg/mL (≈ 15.7 µM); in series [6], 4 µg/mL (≈ 15.7 µM); in series [7], greater than 64 µg/mL; in series [8], 2 to 4 µg/mL (≈ 7.87 to 15.7 µM). In addition, the “Ddl-B inhibition in words” value in series [3] is “more potent”. In addition, the IC50 in series [3] worked out at 236 ± 8.9 µM; in series [5] it was 1.5 ± 0.5 µM. For the same compound, the Ki amounted to 105 ± 4.9 µM in series [3] and 0.83 ± 0.2 µM in series [5]. Moreover, it took 48.1 ± 1.39 µM to reach half-maximal cytotoxicity in series [4] (CC50).
On to `Cc1cc(O)c2c(c1)C(=O)c1cc(O)cc(O)c1C2=O` [Emodin], for which the minimal inhibitory concentration (MIC) in series [1] is 2 µg/mL (≈ 7.4 µM); in series [2], 2 µg/mL (≈ 7.4 µM); in series [6] it was 2 µg/mL (≈ 7.4 µM); in series [7], 2 µg/mL (≈ 7.4 µM); in series [8], 2 to 4 µg/mL (≈ 7.4 to 14.8 µM). The “Ddl-B inhibition in words” value in series [3] is reported as “more potent”. For the same compound, the IC50 was 216 ± 5.6 µM in series [3] (setting [9]) and 0.81 ± 0.3 µM in series [5]. The Ki in series [3] (read-out: Ki Ddl-B) was 102 ± 4.8 µM; in series [5], 0.22 ± 0.1 µM. The same compound yielded a CC50 in series [4] of 49.2 ± 1.39 µM.
For the compound `COc1ccc(Cc2nccc3cc(OC)c(OC)cc23)cc1OC` [Papaverine], the minimum inhibitory concentration (MIC) in series [1], in series [2], in series [6] and in series [7] was greater than 64 µg/mL each time. The same compound registered a CC50 in series [4] of 36.8 ± 0.93 µM. This compound also registered a half-maximal inhibitory concentration (IC50) in series [5] greater than 100 µM. The “Antibacterial activity in words, all tested bacteria” value in series [8] is “inactive”.
